Three compounds from US9562035B2, “Benzamide derivative useful as FASN inhibitors for the treatment of cancer” (Janssen Pharmaceutica NV, priority 2013, dated 2017) can be followed below.

Common to all, as to assay type: cell-based
Test [1] concerns A2780 ovarian cells. Description: A2780 Ovarian Cell Proliferation Assay in Lipid Reduced Medium, with Palmitate (control). The settings on record: Homo sapiens, A2780; lipid reduced medium, 25 μM palmitate, 96 h, MTT; read-out: Proliferation A2780 with Palmitate pIC50 (converted). In short, it runs like this:
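Read-out was MTT absorbance at 544 nm after 96 h at 37 °C. Cells grown overnight in RPMI1640/10% FCS were moved to 10% lipid-reduced serum with compound plus palmitate (final 25 μM, 0.2% fatty-acid-free BSA, 0.2% DMSO). IC50 came from least-squares curve fitting, expressed as −log(IC50).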

Test [2] relates to LNCaP_Vancouver prostate cells. Description: In Vitro LNCaP Vancouver Prostate Cell Proliferation Assay in Lipid Reduced Medium. Conditions: lipid reduced serum, 96 h, read-out: Vancouver Cells pIC50 (converted). The method, then: LNCaP_Vancouver prostate cells were obtained from the Vancouver Prostate Cancer Centre. Cells were maintained in RPMI-1640, 10% Fetal Calf Serum (FCS, Hyclone), 2 mM glutamine and 50 μg/ml Gentamicin.
For the proliferation experiment 1500 LNCaP_Vancouver cells per well were seeded in a 384-well black with clear bottom plate (costar 3712BC) in 40 μl RPMI-1640, 10% Lipid reduced serum (LRS, Hyclone), 50 μg/ml Gentamicin and 2 mM Glutamine and incubated at 37° C., 5% CO2. The next day 10 μl of test compound/DMSO diluted in medium was added (3E-5M, 1E-5M, 3E-6M, 1E-6M, 3E-7M, 1E-7M, 3E-8M, 1E-8M final concentration). Compounds were tested in duplicate. After 96 h incubation at 37° C., 5% CO2 25 μl ATP-glow mix was added. The plate was incubated for 30 min at 37° C. and luminescence was measured with the Envision.
(§1) pIC50 values were calculated as follows. Raw data generated by the instruments were normalized to % Controlmin values, which were calculated as: % Controlmin=100*(x−mLC)/(mHC−mLC),
(§2) where mLC and mHC are the means of the low control wells and high control wells on the plate, after manual exclusion of outliers. The relation between the % Controlmin values and concentration was fitted to a 4-parameter logistic curve using a non-linear least squares regression method to determine the pIC50 value. Outlying data points were excluded manually to get a correct fit. The pIC50 corresponds to −log 10(IC50), if the IC50 is expressed in molar units (http://www.ncbi.nlm.nih.gov/books/NBK91994). The IC50 parameter was always determined by non-linear regression, but one or more of the other parameters may have been held fixed on a relevant input value, such as 0 for the bottom values.
(§3) For dose response curves with FASN inhibitors in LNCaP_Vancouver or PC-3M-Luc_C6 cells the curves bottom out around 30 to 40% of the control value. A standard fit PL2, forcing the lower bound to this level was used.
(§4) Representative compounds of the present invention were tested according to the procedure as described in Biological Example 4a and 4b above, with results as listed in Table BIO-4, below.

Test [3] relates to A2780 ovarian cells. Description: A2780 Ovarian Cell Proliferation Assay in Lipid Reduced Medium, without Palmitate. Conditions: Homo sapiens, A2780; lipid reduced medium, without palmitate, 96 h, MTT; read-out: Proliferation A2780 w/o Palmitate pIC50 (converted). The method in brief:
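A2780 cells were seeded in 10% FCS medium and switched next day to 10% lipid-reduced serum without palmitate. Compounds at 0.01–30 μM were added with 0.2% DMSO, 0.2% fatty-acid-free BSA and 0.25% ethanol final. After 96 h, MTT absorbance at 544 nm was normalized to plate controls, and IC50/pIC50 came from a 4-parameter logistic fit.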

The test system of test [4] is PC-3M-Luc-C6 prostate cells. Put plainly: In Vitro PC-3M-Luc-C6 Prostate Cell Proliferation Assay in Lipid Reduced Medium. Conditions: read-out: PC-3M-Luc-C6 Cells pIC50 (μM) (converted), lipid reduced serum, 96 h. The method, then:
PC-3M-Luc-C6 prostate cells were obtained from Xenogen Corporation. Cells were maintained in MEM supplemented with 10% Fetal Calf Serum (FCS, Hyclone), 2 mM glutamine, 1 mM sodium pyruvate, 1% BME vitamins (available from for example, Sigma Aldrich), 0.1 mM non Essential Amino Acid and 50 μg/ml Gentamicin. The cells were passaged twice a week.
1000 PC-3M-Luc-C6 prostate cells (Xenogen) were seeded in a 384-well black with clear bottom plate (costar 3712BC) in 40 μl MEM, 10% LRS (Hyclo ne), 50 μg/ml Gentamicin, 2 mM Glutamine, 1 mM Sodium pyruvaat, 1% BME vitamins and 0.1 mM non Essential Amino Acid and incubated at 37° C., 5% CO2. The next day 10 μl test compound/DMSO diluted in medium was added (3E-5M, 1E-5M, 3E-6M, 1E-6M, 3E-7M, 1E-7M, 3E-8M, 1E-8M final concentration). Compounds were tested in duplicate. After 96 h incubation at 37° C., 5% CO2 25 μl ATP-glow mix was added. The plate was incubated for 30 min at 37° C. and luminescence was measured with the Envision.
as §1, §2, §3, §4

In the case of `CN(c1ccc(C(=O)N2CCC(c3ccc(-c4cnn(C)c4)cc3)CC2)cc1NC(=O)C1CC1)C1CC1` [Compound 288, N-(2-(cyclopropyl(methyl)amino)-5-(4-(4-(1-methyl-1H-pyrazol-4-yl)phenyl)piperidine-1-carbonyl)phenyl)cyclopropanecarboxamide], the IC50 in the test with A2780 ovarian cells [1] was over 10 µM; in test [2] it was about 9.77 µM; in the test on A2780 ovarian cells [3], 5.13 µM; in test [4], 3.09 µM.

On to `COCCN(C)c1ccc(C(=O)N2CCC(c3ccc(-c4cnn(C)c4)cc3)CC2)cc1NC(=O)C1CC1` [Compound 278, N-(2-((2-methoxyethyl)(methyl)amino)-5-(4-(4-(1-methyl-1H-pyrazol-4-yl)phenyl)piperidine-1-carbonyl)phenyl)cyclopropanecarboxamide], for which the IC50 in the test on A2780 ovarian cells [1] is over 10 µM; in test [2], 6.17 µM; in the test with A2780 ovarian cells [3], 1.78 µM; in test [4] it was 2.14 µM.

Take `CC(C)Nc1ccc(C(=O)Nc2cc(C(=O)N3CCC(c4ccc(-c5cnn(C)c5)cc4)CC3)ccc2N(C)C)cn1` [Compound 280, N-(2-(dimethylamino)-5-(4-(4-(1-methyl-1H-pyrazol-4-yl)phenyl)piperidine-1-carbonyl)phenyl)-6-(isopropylamino)nicotinamide]: the IC50 is 6.17 µM in the test on A2780 ovarian cells [1], 0.372 µM in test [2], 0.0776 µM in the test on A2780 ovarian cells [3] and 0.0724 µM in test [4].
